Measured values: patent US20100222416A1, “Diagnostic Marker and Therapeutic Target for Cancer” (priority 2005, published 2010)

Tests used:
Assay type in all cases: cell-based, human
[1] = system: nm23H1 protein (19.6 kDa form coded by nm23H1-B gene); test: Two-dimensional PAGE / MALDI of untreated and 5FU treated Colo 205 cell lysate, differentially expressed proteins; details: colo 205 cells, 100 μM, 24 hrs, 2D PAGE spot intensity
Method: Two-dimensional gel electrophoresis was carried out to identify differentially expressed proteins on treatment with anticancer agents specifically, colon/colorectal cancer cell line (NCCS, Pune, India) was treated with 5-FU (Fivoflu, Dabur Pharma Ltd, India). Untreated cells (cells, not treated with 5FU) were taken as control.
100 μM of 5-FU was added to colo 205 cells seeded at 80% confluence and were harvested after 24 hrs of treatment. Cells were lysed in lysis buffer (Urea 0.54 g/ml, CHAPS 40 mg/ml and DTT 20 mg/ml) and the clear supernatant of treated and untreated (not treated with 5-FU) cell lysate were subjected to isoelectric focusing (Bio-Rad, Protean IEF Cell) on separate 17 cm IPG strips of 4-7 pH range.
Second dimension electrophoresis was subsequently carried out on a 12% SDS-PAGE (Protean II XL electrophoresis system, Bio-Rad). The gel was silver stained for visualization of the protein spots and a digitized image of the 2D gel was generated, using GS 800 Densitometer (Bio-Rad). […]
The protein spots showing more than 2-fold change in intensity in 5-FU treated and untreated samples were further analyzed. […] The dried samples were reconstituted in 10 μl of 0.1% (v/v of 50% acetonitrile) trifluoroacetic acid and peptides were detected on a Matrix-Assisted Laser Desorption/Ionisation-Time of Flight Mass Spectrometry (MALDI-TOF MS) (Voyager-DE STR). […]

nm23H1-A [2] = test: RT-PCR / real time PCR of nm23H1-A mRNA in 5-FU treated colon cancer cell lines; details: Colo 205 cells, 100 μM, 24 hrs
Method: (§1) The over expression of nm23H1-B was checked at RNA level by RT-PCR. Colo 205 cells were seeded in 6 well plates at 80% confluence and treated with 100 μM of 5FU for 24 hrs. Subsequently, 1 ml of Trizol reagent (Invitrogen) was added to the cells after a phosphate buffer saline washing for extraction of RNA. The total RNA was extracted using chloroform-isopropyl alcohol method. Finally, the pellet was washed with 70% ethanol and dried on a speed-vac. Control RNA from untreated cells was also extracted in a similar fashion (cells, not treated with 5FU.
(§2) RT-PCR was carried out using one step RT-PCR Kit (Qiagen) according to manufacturer's instructions. 1 μg of RNA was taken and mixed with specific primers of nm23H1A & nm23H1B respectively (Table 1, SEQ ID: 3,4,5). β2-micro globulin (primer sequence, Table 1, SEQ ID: 6,7) was used as a control. The PCR amplified samples were then analyzed on a 1.5% agarose gel.

nm23H1-A [3] = test: nm23H1-A mRNA expression in colon cancer cells treated with different anticancer agents (RT-PCR and real time PCR); details: HT29 cell line, 24 hrs
nm23H1-B gene [4] = test: nm23H1-B mRNA expression in colon cancer cells treated with different anticancer agents (RT-PCR and real time PCR); details: HT29 cell line, 24 hrs
Method: To study the effect of other anticancer agents on expression of nm23H1-B gene, we took representative of different classes of anticancer agents like alkylating agents (cisplatin), topoisomerase I and II inhibitors (CPT-11), RNA/DNA antimetabolites (5-FU) and antimitotic agents (paclitaxel).
Cells were treated with different anticancer agents for 24 hrs and RNA was isolated.

nm23H1-B gene [5] = test: RT-PCR / real time PCR of nm23H1-B mRNA in 5-FU treated colon cancer cell lines (Colo 205, HT29)
Method: as §1, §2

nm23H1-B protein = test: Western blot of nuclear and cytosolic fractions of 5FU treated Colo 205 cells; details: 100 μM, 24 hours
Method: Intracellular localization of both nm23H1-A & nm23H1-B gene was evaluated by Western Blot analysis. Colo 205 cells were treated with 100 μM 5FU for 24 hours and cells were removed from their dishes by gentle scraping. Cells were washed with cold PBS and then resuspended in cold nuclei extraction buffer (320 mM sucrose, 5 mM Mgcl2, 10 mM HEPES, 1% Triton X-100 at pH 7.4) at a ratio of 1 ml per million cells. Nuclear fraction was then pelleted by centrifugation at 2000×g and washed twice with nuclei washing buffer (same as nuclei extraction buffer without Triton X-100). Supernatant was collected separately as a cytosolic fraction. Protein was estimated in both nuclear and cytosolic fraction and equal amount of protein was loaded on a 15% SDS PAGE followed by electrobloting on to a polyvinylidene difluoride membrane. Transferred proteins were incubated with blocking buffer containing 3% bovine serum albumin in phosphate-buffered saline. Polyclonal antibody specific for nm23 protein (Santa Cruz) and peroxidase-labeled goat anti-rabbit IgG (Sigma) were used to probe the target gene.

Compound | up regulation of nm23H1 protein in treated cells as compared to untreated [1] | change in nm23H1-A expression level (RNA level) (nm23H1-A [2]) | mRNA levels of nm23H1-A (nm23H1-A [3]) | mRNA levels of nm23H1-B (nm23H1-B gene [4]) | change in nm23H1-B gene expression (RNA level) (nm23H1-B gene [5]; Colo 205 cells, 100 μM, 24 hrs, RT-PCR) | overexpression of nm23H1-B gene (nm23H1-B gene [5]; colon/colorectal cancer cells) | nm23H1-B protein level (nm23H1-B protein)
O=c1[nH]cc(F)c(=O)[nH]1 [5-FU] | more than 6 fold | insignificant change | Increase | Increase | up regulation | about nine | up-regulation
CCc1c2c(nc3ccc(OC(=O)N4CCC(N5CCCCC5)CC4)cc13)-c1cc3c(c(=O)n1C2)COC(=O)[C@]3(O)CC [CPT11, camptothecin-11] |  |  | Increase | Increase |  |  | 
CC(=O)O[C@H]1C(=O)[C@@]2(C)[C@H]([C@H](OC(=O)c3ccccc3)[C@]3(O)C[C@H](OC(=O)[C@H](O)[C@@H](NC(=O)c4ccccc4)c4ccccc4)C(C)=C1C3(C)C)[C@]1(OC(C)=O)CO[C@@H]1C[C@@H]2O [paclitaxel] |  |  | Increase | Increase |  |  | 
N.N.[Cl][Pt][Cl] [cisplatin] |  |  | Increase | Increase |  |  | 
